Paper PMC12136037, “Type II kinase inhibitors that target Parkinson’s disease–associated LRRK2” (Science Advances, 2025)
Where “and” joins values, the source holds several entries; their conditions need not be identical. Equal values may be shown once.

Key:
[1] = target: T1, ~100 representative kinases (Homo sapiens, UniProt O14976); assay: DSF 100 kinase selectivity screen; format: binding; settings: protein GAK; average of three replicates;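 further: compound tested at 20 µM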
T1 construct: Recombinant protein kinase domains with a concentration of 2 μM
T1 sequence (O14976 1-1311): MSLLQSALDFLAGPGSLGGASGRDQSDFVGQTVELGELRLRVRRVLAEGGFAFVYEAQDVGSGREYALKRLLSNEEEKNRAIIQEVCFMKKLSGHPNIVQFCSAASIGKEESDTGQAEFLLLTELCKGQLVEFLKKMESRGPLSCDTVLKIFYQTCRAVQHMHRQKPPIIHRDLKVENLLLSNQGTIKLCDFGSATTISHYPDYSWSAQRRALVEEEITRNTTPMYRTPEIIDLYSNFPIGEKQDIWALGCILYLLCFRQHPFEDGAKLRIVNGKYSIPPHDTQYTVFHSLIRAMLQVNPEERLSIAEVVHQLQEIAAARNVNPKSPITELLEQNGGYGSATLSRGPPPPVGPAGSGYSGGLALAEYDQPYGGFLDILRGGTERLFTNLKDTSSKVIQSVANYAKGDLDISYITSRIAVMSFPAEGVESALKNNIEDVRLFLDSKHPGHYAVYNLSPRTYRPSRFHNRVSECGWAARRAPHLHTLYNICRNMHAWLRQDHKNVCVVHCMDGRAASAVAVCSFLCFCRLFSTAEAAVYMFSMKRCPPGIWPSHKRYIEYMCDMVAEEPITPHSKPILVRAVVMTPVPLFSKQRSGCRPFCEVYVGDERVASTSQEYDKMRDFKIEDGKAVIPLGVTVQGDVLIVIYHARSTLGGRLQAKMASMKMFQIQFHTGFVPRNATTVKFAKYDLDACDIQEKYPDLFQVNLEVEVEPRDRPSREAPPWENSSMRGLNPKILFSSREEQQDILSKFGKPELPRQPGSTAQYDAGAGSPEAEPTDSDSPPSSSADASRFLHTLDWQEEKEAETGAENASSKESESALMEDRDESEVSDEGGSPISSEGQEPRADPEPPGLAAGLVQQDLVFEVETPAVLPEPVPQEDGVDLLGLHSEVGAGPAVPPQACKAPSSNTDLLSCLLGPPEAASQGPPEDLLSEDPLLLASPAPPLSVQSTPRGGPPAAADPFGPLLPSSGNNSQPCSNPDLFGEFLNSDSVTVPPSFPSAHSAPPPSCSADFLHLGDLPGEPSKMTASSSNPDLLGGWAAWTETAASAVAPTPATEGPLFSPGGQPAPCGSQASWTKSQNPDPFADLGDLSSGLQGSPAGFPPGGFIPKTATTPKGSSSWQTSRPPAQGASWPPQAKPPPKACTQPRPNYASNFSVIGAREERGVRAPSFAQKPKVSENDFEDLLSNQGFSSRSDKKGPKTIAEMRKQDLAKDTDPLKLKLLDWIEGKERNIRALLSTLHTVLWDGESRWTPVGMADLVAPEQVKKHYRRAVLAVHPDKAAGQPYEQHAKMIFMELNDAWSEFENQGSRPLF
Outline: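 Each kinase domain, at 2 μM, is mixed with 20 μM test compound and SYPRO Orange in Hepes (20 mM, pH 7.5) with 500 mM NaCl. Temperature is then raised at 3°C/min and fluorescence-monitored unfolding yields the melting temperature change, ΔTm in degrees Celsius.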

LRRK2^KW = target: T2, LRRK2^KW (Homo sapiens, UniProt Q5S007); assay: DSF thermal stabilization of LRRK2^KW; format: binding; settings: for ∆Tm (K): DSF, LRRK2^KW, 10 μM inhibitor
T2 construct: LRRK2 R1847 to E2527; His6-Z-tag (TEV cleavable) (N, cleaved yes); host or cells: Sf9 insect cells (baculovirus)
T2 sequence (Q5S007 1847-2527): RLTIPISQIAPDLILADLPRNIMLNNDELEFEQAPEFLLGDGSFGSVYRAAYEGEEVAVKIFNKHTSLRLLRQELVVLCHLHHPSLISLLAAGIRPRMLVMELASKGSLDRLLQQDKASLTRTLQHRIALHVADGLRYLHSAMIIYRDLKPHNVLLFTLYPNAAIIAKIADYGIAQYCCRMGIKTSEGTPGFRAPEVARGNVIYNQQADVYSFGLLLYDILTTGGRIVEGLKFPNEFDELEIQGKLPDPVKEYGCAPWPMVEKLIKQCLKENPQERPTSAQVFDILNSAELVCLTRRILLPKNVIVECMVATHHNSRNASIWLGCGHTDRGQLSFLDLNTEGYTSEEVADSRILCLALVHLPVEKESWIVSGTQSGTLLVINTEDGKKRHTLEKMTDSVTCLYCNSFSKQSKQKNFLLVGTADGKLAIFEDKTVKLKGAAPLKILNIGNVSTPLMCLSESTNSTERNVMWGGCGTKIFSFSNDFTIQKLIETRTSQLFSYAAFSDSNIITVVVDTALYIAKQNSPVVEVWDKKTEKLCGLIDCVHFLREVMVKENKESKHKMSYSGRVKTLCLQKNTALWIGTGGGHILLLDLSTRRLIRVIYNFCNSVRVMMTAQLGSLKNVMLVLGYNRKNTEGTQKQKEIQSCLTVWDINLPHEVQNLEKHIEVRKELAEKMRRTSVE
Outline: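 DSF on 4 μM LRRK2^KW in 20 mM Hepes pH 7.4, 150 mM NaCl, 0.5 mM TCEP, 0.5% glycerol, 20 μM GDP, 2.5 mM MgCl2 with SYPRO Orange; inhibitor at 10 μM. Tm was taken as the minimum of the first derivative of fluorescence versus temperature, relative to control.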

Row | dTm [1] [K] | ∆Tm (K) (LRRK2^KW) | Compound | other results
1 | 0.81 | 9.1 K | Cc1ccc(NC(=O)C2(C(=O)Nc3cccc(-c4c[nH]c5ncnc(N6CCOCC6)c45)c3)CC2)cc1 [Compound 14] | 
2 | 0.83 | 10.0 K | Cc1cc(NC(=O)C2(C(=O)Nc3ccc(F)cc3)CC2)cc(-c2c[nH]c3ncnc(N4CCOCC4)c23)c1 [Compound 6] | 
3 | -0.90 | 10.2 K | O=C(Nc1cc(F)cc(Br)c1)C1(C(=O)Nc2cccc(-c3c[nH]c4ncnc(N5CCOCC5)c34)c2)CC1 [Compound 27] | 
4 | 0.0654 | 4.3 K | COc1ccc(NC(=O)C2(C(=O)Nc3cccc(-c4c[nH]c5ncnc(N6CCOCC6)c45)c3)CC2)cc1 [Compound 16] | 
5 | -1.53 |  | Cc1ccc(-n2nc(C(C)(C)C)cc2NC(=O)Nc2cccc(-c3c[nH]c4nc(Cl)nc(N5CCOCC5)c34)c2)cc1 [Compound 30] | ∆Tm (K) (LRRK2^KW; listed as 30 (RN277)): 18.0 K; ∆Tm (K) (LRRK2^KW; listed as RN277): 18 K
6 | 1.60 | 9.5 K | O=C(Nc1ccc(Cl)cc1)C1(C(=O)Nc2cccc(-c3c[nH]c4ncnc(N5CCOCC5)c34)c2)CC1 [Compound 13] | 
7 | 0.77 |  | CCNc1nc(Nc2cc(F)c(C(=O)N3CCOCC3)cc2OC)ncc1C(F)(F)F [GNE-7915] | 
8 | 0.84 | 8.5 K | Cc1cc(F)ccc1NC(=O)C1(C(=O)Nc2cccc(-c3c[nH]c4ncnc(N5CCOCC5)c34)c2)CC1 [Compound 24] | 
9 | 0.23 |  | O=C(Nc1ccc(F)cc1)C1(C(=O)Nc2cccc(-c3c[nH]c4ncnc(N5CCOCC5)c34)c2)CC1 [Compound 2] | 
10 | 0.54 | 9.3 K | COc1cc(NC(=O)C2(C(=O)Nc3cccc(-c4c[nH]c5ncnc(N6CCOCC6)c45)c3)CC2)ccc1F [Compound 21] | 
11 | -2.23 | 12.0 K | CC(C)(C)c1cccc(NC(=O)C2(C(=O)Nc3cccc(-c4c[nH]c5ncnc(N6CCOCC6)c45)c3)CC2)c1 [Compound 22] | 
12 | 0.00 | 21.0 K | Cc1ccc(-n2nc(C(C)(C)C)cc2NC(=O)Nc2cccc(-c3c[nH]c4ncnc(N5CCOCC5)c34)c2)cc1 [Compound 29] | 
13 | 0.0652 | 13.0 K | O=C(Nc1cccc(-c2c[nH]c3ncnc(N4CCOCC4)c23)c1)c1cccn(-c2ccc(F)cc2)c1=O [Compound 4] | 
14 | 0.71 | 9.0 K | O=C(Nc1cccc(-c2c[nH]c3ncnc(N4CCOCC4)c23)c1)C1(C(=O)Nc2cc(Br)c(F)cc2F)CC1 [Compound 25] | 
15 | 0.09 | 9.1 K | CCc1ccc(NC(=O)C2(C(=O)Nc3cccc(-c4c[nH]c5ncnc(N6CCOCC6)c45)c3)CC2)cc1 [Compound 15] | 
16 | 3.32 | 18.0 K | CC(=O)N1CCN(c2nc(Cl)nc3[nH]cc(-c4cccc(NC(=O)Nc5cc(C(C)(C)C)nn5-c5ccc(C)cc5)c4)c23)CC1 [Compound 31] | 
17 | 0.91 | 10.7 K | O=C(Nc1cccc(-c2c[nH]c3ncnc(N4CCOCC4)c23)c1)C1(C(=O)Nc2ccc(F)c(Br)c2F)CC1 [Compound 26] | 
18 | 3.76 |  | COc1cc(S(C)(=O)=O)ccc1Nc1nc(N(C)C)c2c(Cl)c[nH]c2n1 [Compound 37] | 
19 | 0.67 | 9.2 K | O=C(Nc1cccc(-c2c[nH]c3ncnc(N4CCOCC4)c23)c1)C1(C(=O)Nc2ccc(F)cc2F)CC1 [Compound 23] | 
20 | -0.59 | 9.2 K | O=C(Nc1cccc(-c2c[nH]c3ncnc(N4CCOCC4)c23)c1)C1(C(=O)Nc2cccc3c2CCC3)CC1 [Compound 11] | 
21 | 1.44 | 9.3 K | O=C(Nc1ccccc1)C1(C(=O)Nc2cccc(-c3c[nH]c4ncnc(N5CCOCC5)c34)c2)CC1 [Compound 12] | 
22 | 6.68 | 16.0 K | COc1cc(C(=O)N2CCOCC2)c(F)cc1Nc1nc(N(C)C)c2c(Cl)c[nH]c2n1 [Compound 36] | 
23 | 7.34 | 20.0 K | CC(C)(C)c1cc(NC(=O)Nc2cccc(-c3c[nH]c4ncnc(N5CCOCC5)c34)c2)n(-c2ccc3ncccc3c2)n1 [Compound 28] | 
24 | 1.28 | 12.3 K | O=C(Nc1cccc(-c2c[nH]c3ncnc(N4CCOCC4)c23)c1)C1(C(=O)Nc2ccc(F)c(Cl)c2)CC1 [Compound 18] | 
25 | 3.03 | 9.5 K | Cc1ccc(C(=O)Nc2ccc(CN3CCN(C)CC3)c(C(F)(F)F)c2)cc1C#Cc1c[nH]c2ncnc(N3CCOCC3)c12 [Compound 1] | 
26 | 1.14 | 10.3 K | O=C(Nc1cccc(-c2c[nH]c3ncnc(N4CCOCC4)c23)c1)C1(C(=O)Nc2ccc(F)c(F)c2)CC1 [Compound 17] | 
27 | 1.18 | 14.0 K | O=C(Nc1cccc(-c2c[nH]c3ncnc(N4CCOCC4)c23)c1)C1(C(=O)Nc2ccc(F)c(Br)c2)CC1 [Compound 19] | 

Row | Compound | dTm [1] [K] | ∆Tm (K) (LRRK2^KW) | other results
28 | CCSc1nc(NC)c2c(-c3cccc(NC(=O)Nc4cc(C(C)(C)C)nn4-c4ccc(C)cc4)c3)c[nH]c2n1 [Compound 32] | -1.07 |  | ∆Tm (K) (LRRK2^KW; listed as 32 (RN341)): 19.9 K; ∆Tm (K) (LRRK2^KW; listed as RN341): 20 K
29 | CNC(=O)c1cc(Oc2ccc(NC(=O)Nc3cc(C(C)(C)C)nn3-c3ccc4ncccc4c3)c(F)c2)ccn1 [Rebastinib, reference compound] | 4.99 | 18.5 K and 18.5 ± 0.7 K | 
30 | COc1cc2c(Oc3ccc(NC(=O)C4(C(=O)Nc5ccc(F)cc5)CC4)cc3F)ccnc2cc1OCCCN1CCOCC1 [Foretinib, reference compound] | 2.91 | 12.1 ± 0.1 K | dTm LRRK2(KW) [K] (LRRK2^KW; screen of 31 type-II inhibitors, Table S1): 11.5 K
31 | Cc1ccc(C(=O)Nc2ccc(CN3CCN(C)CC3)c(C(F)(F)F)c2)cc1C#Cc1cnc2cccnn12 [Ponatinib, reference compound] |  | 13.0 K | 
32 | C[C@@H]1CN(c2cc(-c3n[nH]c4ccc(OC5(C)CC5)cc34)ncn2)C[C@H](C)O1 [MLi2] | 0.31 |  | 
33 | Cn1cc(-c2c[nH]c3ncnc(N4CCOCC4)c23)cc1C#N [PFE-360] | -0.50 |  | 
34 | Cc1ccc(C(=O)Nc2ccc(CN3CCN(C)CC3)c(C(F)(F)F)c2)cc1C#Cc1cnc2[nH]ncc2c1 [GZD-824, reference compound] | 11.23 | 21.2 ± 2.5 K | 
